# Laboratory results published in patent publication US20170122958A1, “Enzymes Functional Probes” (University of Dundee, priority 2013, published 2017).
# What was measured:
# [1] = test system: WT and mutants (Leu to Ala, Leu to Val and Leu to Ile) of Brd2(2); experiment: ITC of compound into protein (FIG. 16); type: binding, human; details: 250 μM compound into 25 μM protein; result in words
# Procedure: To investigate the utility of the new compounds further, the inventors performed isothermal titration experiments by titrating 250 μM compound solutions (AL, ME-Am1, ET-Am1, ME-Am2, ET-Am2, 9-ME, 9-ET, 9-ME-Am1 and 9-ET-Am1) 25 μM protein solutions (WT and mutants (Leu to Ala, Leu to Val and Leu to Ile) of Brd2(2)).
# ITC experiments were carried out on a ITC200 instrument from MicroCal™ Experiments were conducted at 3 different temperatures 15° C., 25° C. and 30° C., while stirring at 1000 rpm. Buffers of proteins, peptide and compounds were matched to 20 mM HEPES pH 7.5 at 25° C. and 100 mM NaCl. Frozen protein was buffer exchanged as described for the DSF experiments. Each titration comprised 1 initial injection of 0.4 μl lasting 0.8 s, followed by 19 injections of 2 μl lasting 4 s each at 2 min intervals. The initial injection was discarded during data analysis. Standard and reverse titrations were conducted depending on the binding partners.
# All the data was fitted to a single binding site model using the Microcal LLC ITC200 Origin software provided by the manufacturer to yield enthalpies of binding (ΔH) and binding constants (Kas). Further thermodynamic parameters were calculated from these values (changes in entropy ΔS, changes in free energy AG and dissociation constants (Kds)).
# Brd2(1)*(Met165Ala) = Brd2(1)*(Met165Ala) (Homo sapiens, UniProt P25440, M165A); experiment: DSF thermal shift; type: binding; parameters: Plasmids of the eight single BET bromodomain constructs Brd2(1), Brd2(2), Brd3(1), Brd3(2); His6 (N); made in house; host or cells: E. coli BL21(DE3); details: mutant
# Procedure: (§1) DSF assays were performed on a LightCycler®480 from Roche or a Mx3005P Real Time PCR machine from Stratagene. Prior to DSF assays, frozen proteins were buffer exchanged using Vivaspin®6 concentrators with a 10 kDa cutoff on a Centrifuge 5430 from Eppendorf at a speed of 6000×g to remove glycerol and to buffer the proteins in 20 mM HEPES pH 7.5 at 25° C. and 100 mM NaCl. SYPRO®Orange from Invitrogen Molecular Probes® was used as a reporter dye to monitor the denaturing process of the proteins. Samples were assayed on a 96-well plate with final protein concentrations of 2 μM for the LightCycler®480 and 6 μM for Mx3005P. Compounds were added at a final concentration of 10 μM for the LightCycler®480 and 30 μM for Mx3005P, while the tetra acetylated histone peptide was added to a final concentration of 100 μM and 300 μM respectively. […] The temperature was raised with a step of 0.6° C. per minute from 37° C. to 95° C. with the LightCycler®480 collecting 39 measurements per ° C., and 1° C. per minute from 25° C. to 95° C. with Mx3005P, collecting fluorescence readings at the end of each interval. Each sample was run in triplicates.
# (§2) Collected data was analysed by IGOR Pro 6, a scientific software tool from Wave Metrics, Inc. Analysis was done following the recommendations of Niesen et al.. Fluorescence intensity was plotted as a function of temperature, generating a sigmoidal curve described by a two-state transition from folded to unfolded protein. Curves were fitted by the following sigmoidal equation: […]
# (§3) A1 and A2 are the values of minimum and maximum intensities, respectively, x0 is the inflection point and dx is the rate. Fitted curves were differentiated in IGOR Pro 6 and the maximum of the first derivative was identified using the same program. These values correspond to the inflection points of the transition curves and thus to the melting temperatures of the proteins (Tm).
# Brd2(1) = target: T1, Brd2(1) (Homo sapiens, UniProt P25440); experiment: DSF thermal shift; type: binding; details: wild type
# T1 construct: Plasmids of the eight single BET bromodomain constructs Brd2(1), Brd2(2), Brd3(1), Brd3(2); His6 (N); made in house; host or cells: E. coli BL21(DE3)
# Procedure: as §1, with “Prior to DSF assays, frozen proteins were buffer exchanged using Vivaspin®6 concentrators with a 10 kDa cutoff on a Centrifuge 5430 from Eppendorf at a speed of 6000×g to remove glycerol and to buffer the proteins in 20 mM HEPES pH 7.5 at 25° C. and 100 mM NaCl.” left out
# as §2, §3
# Brd2(2) = target: T2, Brd2(2) (Homo sapiens, UniProt P25440); experiment: DSF thermal shift; type: binding; details: wild type
# T2 construct: Plasmids of the eight single BET bromodomain constructs Brd2(1), Brd2(2), Brd3(1), Brd3(2); His6 (N); made in house; host or cells: E. coli BL21(DE3)
# Procedure: as §1, with “Prior to DSF assays, frozen proteins were buffer exchanged using Vivaspin®6 concentrators with a 10 kDa cutoff on a Centrifuge 5430 from Eppendorf at a speed of 6000×g to remove glycerol and to buffer the proteins in 20 mM HEPES pH 7.5 at 25° C. and 100 mM NaCl.” left out
# as §2, §3
# Brd2(1)*(Met165-Leu) = target: T3, Brd2(1)*(Met165-Leu) (Homo sapiens, UniProt P25440, M165L); experiment: DSF thermal shift; type: binding; details: mutant
# T3 construct: Plasmids of the eight single BET bromodomain constructs Brd2(1), Brd2(2), Brd3(1), Brd3(2); His6 (N); made in house; host or cells: E. coli BL21(DE3)
# Procedure: as §1, §2, §3
# Brd2(2)*(Met438-Ala) = target: T4, Brd2(2)*(Met438-Ala) (Homo sapiens, UniProt P25440, M438A); experiment: DSF thermal shift; type: binding; details: mutant
# T4 construct: Plasmids of the eight single BET bromodomain constructs Brd2(1), Brd2(2), Brd3(1), Brd3(2); His6 (N); made in house; host or cells: E. coli BL21(DE3)
# Procedure: as §1, §2, §3
# Brd2(2)*(Met438-Leu) = target: T5, Brd2(2)*(Met438-Leu) (Homo sapiens, UniProt P25440, M438L); experiment: DSF thermal shift; type: binding; details: mutant
# T5 construct: Plasmids of the eight single BET bromodomain constructs Brd2(1), Brd2(2), Brd3(1), Brd3(2); His6 (N); made in house; host or cells: E. coli BL21(DE3)
# Procedure: as §1, §2, §3
# Brd2(2)*(Trp370Phe) = target: T6, Brd2(2)*(Trp370Phe) (Homo sapiens, UniProt P25440, W370F); experiment: DSF thermal shift; type: binding; details: mutant
# T6 construct: Plasmids of the eight single BET bromodomain constructs Brd2(1), Brd2(2), Brd3(1), Brd3(2); His6 (N); made in house; host or cells: E. coli BL21(DE3)
# Procedure: as §1, with “Prior to DSF assays, frozen proteins were buffer exchanged using Vivaspin®6 concentrators with a 10 kDa cutoff on a Centrifuge 5430 from Eppendorf at a speed of 6000×g to remove glycerol and to buffer the proteins in 20 mM HEPES pH 7.5 at 25° C. and 100 mM NaCl.” left out
# as §2, §3
# Brd2(1)*(Trp097Phe) = target: T7, Brd2(1)*(Trp097Phe) (Homo sapiens, UniProt P25440, W97F); experiment: DSF thermal shift; type: binding; details: mutant
# T7 construct: Plasmids of the eight single BET bromodomain constructs Brd2(1), Brd2(2), Brd3(1), Brd3(2); His6 (N); made in house; host or cells: E. coli BL21(DE3)
# Procedure: as §1, with “Prior to DSF assays, frozen proteins were buffer exchanged using Vivaspin®6 concentrators with a 10 kDa cutoff on a Centrifuge 5430 from Eppendorf at a speed of 6000×g to remove glycerol and to buffer the proteins in 20 mM HEPES pH 7.5 at 25° C. and 100 mM NaCl.” left out
# as §2, §3
# Brd2(1)*(Trp097His) = target: T8, Brd2(1)*(Trp097His) (Homo sapiens, UniProt P25440, W97H); experiment: DSF thermal shift; type: binding; details: mutant
# T8 construct: Plasmids of the eight single BET bromodomain constructs Brd2(1), Brd2(2), Brd3(1), Brd3(2); His6 (N); made in house; host or cells: E. coli BL21(DE3)
# Procedure: as §1, with “Prior to DSF assays, frozen proteins were buffer exchanged using Vivaspin®6 concentrators with a 10 kDa cutoff on a Centrifuge 5430 from Eppendorf at a speed of 6000×g to remove glycerol and to buffer the proteins in 20 mM HEPES pH 7.5 at 25° C. and 100 mM NaCl.” left out
# as §2, §3
# Brd2(2)*(Trp370His) = target: T9, Brd2(2)*(Trp370His) (Homo sapiens, UniProt P25440, W370H); experiment: DSF thermal shift; type: binding; details: mutant
# T9 construct: Plasmids of the eight single BET bromodomain constructs Brd2(1), Brd2(2), Brd3(1), Brd3(2); His6 (N); made in house; host or cells: E. coli BL21(DE3)
# Procedure: as §1, with “Prior to DSF assays, frozen proteins were buffer exchanged using Vivaspin®6 concentrators with a 10 kDa cutoff on a Centrifuge 5430 from Eppendorf at a speed of 6000×g to remove glycerol and to buffer the proteins in 20 mM HEPES pH 7.5 at 25° C. and 100 mM NaCl.” left out
# as §2, §3
# T4 sequence (P25440 344-453 M438A limits assumed): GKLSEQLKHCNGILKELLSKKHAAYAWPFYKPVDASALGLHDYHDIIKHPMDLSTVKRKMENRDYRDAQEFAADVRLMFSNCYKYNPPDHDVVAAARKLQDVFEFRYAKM
# T5 sequence (P25440 344-453 M438L limits assumed): as the sequence (P25440 344-453 M438A limits assumed) above, with A95L counted along it
# Chain of Brd2(1)*(Met165Ala) (P25440 74-180 M165A limits assumed): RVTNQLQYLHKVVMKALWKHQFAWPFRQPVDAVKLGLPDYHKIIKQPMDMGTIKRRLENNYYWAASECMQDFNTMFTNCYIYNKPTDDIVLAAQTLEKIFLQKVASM
# T3 sequence (P25440 74-180 M165L limits assumed): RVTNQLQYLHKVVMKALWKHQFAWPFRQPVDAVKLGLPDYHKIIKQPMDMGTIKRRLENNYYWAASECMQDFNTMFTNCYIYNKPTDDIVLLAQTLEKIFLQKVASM
# T2 sequence (P25440 344-453 limits assumed): as the sequence (P25440 344-453 M438A limits assumed) above, with A95M counted along it
# T1 sequence (P25440 74-180 limits assumed): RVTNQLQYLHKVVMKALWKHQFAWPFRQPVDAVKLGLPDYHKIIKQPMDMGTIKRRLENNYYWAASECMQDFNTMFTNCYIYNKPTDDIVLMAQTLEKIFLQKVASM
# T9 sequence (P25440 344-453 W370H limits assumed): as the sequence (P25440 344-453 M438A limits assumed) above, with W27H, A95M counted along it
# T7 sequence (P25440 74-180 W97F limits assumed): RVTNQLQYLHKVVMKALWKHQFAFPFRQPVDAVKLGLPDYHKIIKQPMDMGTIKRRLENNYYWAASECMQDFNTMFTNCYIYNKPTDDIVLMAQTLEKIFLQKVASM
# T8 sequence (P25440 74-180 W97H limits assumed): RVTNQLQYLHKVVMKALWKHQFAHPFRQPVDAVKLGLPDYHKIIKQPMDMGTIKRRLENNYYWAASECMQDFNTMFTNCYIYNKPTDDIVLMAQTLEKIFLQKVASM
# T6 sequence (P25440 344-453 W370F limits assumed): as the sequence (P25440 344-453 M438A limits assumed) above, with W27F, A95M counted along it
structure (smiles),measurement,setting,value
"C=CC[C@@H](C(=O)OC)[C@@H]1N=C(c2ccc(Cl)cc2)c2cc(OC)ccc2-n2c(C)nnc21 (racemic) [AL, (+−)methyl (R)-2-((S)-6-(4-chlorophenyl)-8-methoxy-1-methyl-4H-benzo[f][1,2,4]triazolo[4,3-a][1,4]diazepin-4-yl)pent-4-enoate]",Selectivity for Brd2(2) mutants relative to wild type by ITC (FIG. 16),[1],higher selectivity for the mutants relative to wild types
"CC[C@@H](C(=O)OC)[C@@H]1N=C(c2ccc(Cl)cc2)c2ccc(OC)cc2-n2c(C)nnc21 (racemic) [Compound 9-ET, (+−) methyl (R)-2-((S)-6-(4-chlorophenyl)-9-methoxy-1-methyl-4H-benzo[f][1,2,4]triazolo[4,3-a][1,4]diazepin-4-yl)butanoate]",Selectivity for Brd2(2) mutants relative to wild type by ITC (FIG. 16),[1],higher selectivity for the mutants relative to wild types
"COC(=O)[C@H](C)[C@@H]1N=C(c2ccc(Cl)cc2)c2ccc(OC)cc2-n2c(C)nnc21 (racemic) [Compound 9-ME, (+−) methyl (R)-2-((S)-6-(4-chlorophenyl)-9-methoxy-1-methyl-4H-benzo[f][1,2,4]triazolo[4,3-a][1,4]diazepin-4-yl)propanoate]",Selectivity for Brd2(2) mutants relative to wild type by ITC (FIG. 16),[1],higher selectivity for the mutants relative to wild types
"CCNC(=O)[C@H](C)[C@@H]1N=C(c2ccc(Cl)cc2)c2ccc(OC)cc2-n2c(C)nnc21 (racemic) [Compound 9-ME-Am1, (+−) (R)-2-((S)-6-(4-chlorophenyl)-9-methoxy-1-methyl-4H-benzo[f][1,2,4]triazolo[4,3-a][1,4]diazepin-4-yl)-N-ethylpropanamide]",Selectivity for Brd2(2) mutants relative to wild type by ITC (FIG. 16),[1],higher selectivity for the mutants relative to wild types
"CCNC(=O)[C@H](CC)[C@@H]1N=C(c2ccc(Cl)cc2)c2cc(OC)ccc2-n2c(C)nnc21 (racemic) [ET-Am1, (+−) (R)-2-((S)-6-(4-chlorophenyl)-8-methoxy-1-methyl-4H-benzo[f][1,2,4]triazolo[4,3-a][1,4]diazepin-4-yl)-N-ethylbutanamide]",Selectivity for Brd2(2) mutants relative to wild type by ITC (FIG. 16),[1],higher selectivity for the mutants relative to wild types
"CC[C@@H](C(=O)N(CC)CC)[C@@H]1N=C(c2ccc(Cl)cc2)c2cc(OC)ccc2-n2c(C)nnc21 (racemic) [ET-Am2, (+−) (R)-2-((S)-6-(4-chlorophenyl)-8-methoxy-1-methyl-4H-benzo[f][1,2,4]triazolo[4,3-a][1,4]diazepin-4-yl)-N,N-diethylbutanamide]",Selectivity for Brd2(2) mutants relative to wild type by ITC (FIG. 16),[1],higher selectivity for the mutants relative to wild types
"CCNC(=O)[C@H](C)[C@@H]1N=C(c2ccc(Cl)cc2)c2cc(OC)ccc2-n2c(C)nnc21 (racemic) [ME-Am1, (+−) (R)-2-((S)-6-(4-chlorophenyl)-8-methoxy-1-methyl-4H-benzo[f][1,2,4]triazolo[4,3-a][1,4]diazepin-4-yl)-N-ethylpropanamide]",Selectivity for Brd2(2) mutants relative to wild type by ITC (FIG. 16),[1],higher selectivity for the mutants relative to wild types
"CCN(CC)C(=O)[C@H](C)[C@@H]1N=C(c2ccc(Cl)cc2)c2cc(OC)ccc2-n2c(C)nnc21 (racemic) [ME-Am2, (+−) (R)-2-((S)-6-(4-chlorophenyl)-8-methoxy-1-methyl-4H-benzo[f][1,2,4]triazolo[4,3-a][1,4]diazepin-4-yl)-N,N-diethylpropanamide]",Selectivity for Brd2(2) mutants relative to wild type by ITC (FIG. 16),[1],higher selectivity for the mutants relative to wild types
"COc1ccc(S(=O)(=O)Nc2ccc3c(c2)CN(C)C(=O)N3)c(OC)c1 [Compound 54, 2,4-dimethoxy-N-(3-methyl-2-oxo-1,2,3,4-tetrahydroquinazolin-6-yl)benzenesulfonamide]",ΔTm Brd2(1)*(Met165-Ala),Brd2(1)*(Met165Ala),1.5 ± 0.2 K
same,ΔTm Brd2(1),Brd2(1),2.4 ± 0.2 K
same,ΔTm Brd2(2),Brd2(2),1.6 ± 0.2 K
same,ΔTm Brd2(1)*(Met165-Leu),Brd2(1)*(Met165-Leu),2.7 ± 0.3 K
same,ΔTm Brd2(2)*(Met165-Ala),Brd2(2)*(Met438-Ala),2.3 ± 0.1 K
same,ΔTm Brd2(2)*(Met165-Leu),Brd2(2)*(Met438-Leu),2.4 ± 0.4 K
"COc1ccccc1S(=O)(=O)Nc1ccc2c(c1)CN(C)C(=O)N2 [PFI-1, reference compound]",ΔTm Brd2(1)*(Met165-Ala),Brd2(1)*(Met165Ala),1.6 ± 0.1 K
same,ΔTm Brd2(2)*(Tryp370-Phe),Brd2(2)*(Trp370Phe),2.9 ± 0.3 K
same,ΔTm Brd2(1)*(Tryp097-Phe),Brd2(1)*(Trp097Phe),2.6 ± 0.4 K
same,ΔTm Brd2(1)*(Tryp097-His),Brd2(1)*(Trp097His),1.9 ± 0.5 K
same,ΔTm Brd2(1),Brd2(1),4.5 ± 0.3 K
same,ΔTm Brd2(2)*(Tryp370-His),Brd2(2)*(Trp370His),1.8 ± 0.0 K
same,ΔTm Brd2(2),Brd2(2),4.5 ± 0.2 K
same,ΔTm Brd2(1)*(Met165-Leu),Brd2(1)*(Met165-Leu),1.3 ± 0.3 K
same,ΔTm Brd2(2)*(Met165-Ala),Brd2(2)*(Met438-Ala),1.7 ± 0.1 K
same,ΔTm Brd2(2)*(Met165-Leu),Brd2(2)*(Met438-Leu),2.1 ± 0.3 K
